Results published in US9624170B2, “4-(piperrazin-1-yl)-pyrrolidin-2-one compounds as monoacylglycerol lipase (MAGL) inhibitors” (TAKEDA PHARMACEUTICAL COMPANY LIMITED, priority 2013, dated 2017).

Target: T1, human MAGL (His-hMAGL) (Homo sapiens, UniProt Q99685)
T1 construct: made in house; host or cells: Escherichia coli BL21(DE3)
T1 sequence (Q99685 1-303): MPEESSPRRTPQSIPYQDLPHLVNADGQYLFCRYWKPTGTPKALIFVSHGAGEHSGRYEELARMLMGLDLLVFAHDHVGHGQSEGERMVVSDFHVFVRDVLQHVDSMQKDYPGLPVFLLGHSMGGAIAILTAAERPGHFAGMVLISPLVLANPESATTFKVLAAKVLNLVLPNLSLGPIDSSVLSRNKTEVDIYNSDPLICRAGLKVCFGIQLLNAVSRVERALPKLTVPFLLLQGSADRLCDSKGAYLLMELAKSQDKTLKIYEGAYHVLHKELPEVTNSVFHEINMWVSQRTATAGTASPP
Assay: Measurement of MAGL inhibitory activity by mass spectrometry
Assay type: biochemical
Settings: MAGL inhibitory rate, test compound 10 μM, His-hMAGL, substrate 2-arachidonylglycerol, RapidFire-mass spectrometry
Summary of the method: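 His-tagged human MAGL was reacted with 150 μM 2-arachidonylglycerol substrate (stock, added by 5 μL) for 10 min at room temperature, then stopped with formic acid. Arachidonic acid product was quantified by RapidFire–triple-quadrupole MS in negative SRM mode, corrected by arachidonic acid-d8, and converted to percent inhibition.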

| SMILES | inhibition at 10 µM [%] |
| --- | --- |
| O=C(c1nccs1)N1CCN(C2CC(=O)N(c3ccc(F)c(-c4ccc(F)cc4Cl)c3)C2)CC1 (centres unmarked) [Example 276, 1-(2′-chloro-4′,6-difluorobiphenyl-3-yl)-4-(4-(1,3-thiazol-2-ylcarbonyl)piperazin-1-yl)pyrrolidin-2-one] | 102 |
| O=C(c1nccs1)N1CCN(C2CC(=O)N(c3ccc(F)c(-c4ccccc4Cl)c3)C2)CC1 (centres unmarked) [Example 277, 1-(2′-chloro-6-fluorobiphenyl-3-yl)-4-(4-(1,3-thiazol-2-ylcarbonyl)piperazin-1-yl)pyrrolidin-2-one] | 98 |
| Cc1cc(C)cc(-n2ccc3cc(N4CC(N5CCN(C(=O)c6nccs6)CC5)CC4=O)ccc32)c1 (centres unmarked) [Example 279, 1-(1-(3,5-dimethylphenyl)-1H-indol-5-yl)-4-(4-(1,3-thiazol-2-ylcarbonyl)piperazin-1-yl)pyrrolidin-2-one] | 101 |
| O=C(c1nccs1)N1CCN(C2CC(=O)N(c3ccc4c(ccn4-c4cccc(C(F)(F)F)c4)c3)C2)CC1 (centres unmarked) [Example 280, 4-(4-(1,3-thiazol-2-ylcarbonyl)piperazin-1-yl)-1-(1-(3-(trifluoromethyl)phenyl)-1H-indol-5-yl)pyrrolidin-2-one] | 101 |
| O=C(c1nccs1)N1CCN(C2CC(=O)N(c3ccc4c(ccn4-c4nccc(C(F)(F)F)n4)c3)C2)CC1 (centres unmarked) [Example 281, 4-(4-(1,3-thiazol-2-ylcarbonyl)piperazin-1-yl)-1-(1-(4-(trifluoromethyl)pyrimidin-2-yl)-1H-indol-5-yl)pyrrolidin-2-one] | 99 |
| O=C(c1nccs1)N1CCN(C2CC(=O)N(c3cccc(-c4c(F)cc(F)cc4F)c3)C2)CC1 (centres unmarked) [Example 282, 4-(4-(1,3-thiazol-2-ylcarbonyl)piperazin-1-yl)-1-(2′,4′,6′-trifluorobiphenyl-3-yl)pyrrolidin-2-one] | 100 |
| O=C(c1nccs1)N1CCN(C2CC(=O)N(c3cccc(-c4ccc(Cl)cc4Cl)c3)C2)CC1 (centres unmarked) [Example 283, 1-(2′,4′-dichlorobiphenyl-3-yl)-4-(4-(1,3-thiazol-2-ylcarbonyl)piperazin-1-yl)pyrrolidin-2-one] | 101 |
| O=C(c1nccs1)N1CCN(C2CC(=O)N(c3cccc(-c4ccc(F)c(Cl)c4)c3)C2)CC1 (centres unmarked) [Example 284, 1-(3′-chloro-4′-fluorobiphenyl-3-yl)-4-(4-(1,3-thiazol-2-ylcarbonyl)piperazin-1-yl)pyrrolidin-2-one] | 101 |
| O=C(c1nccs1)N1CCN(C2CC(=O)N(c3cccc(-c4ccccc4-c4ccccc4)c3)C2)CC1 (centres unmarked) [Example 285, 1-(1,1′:2′,1″-terphenyl-3-yl)-4-(4-(1,3-thiazol-2-ylcarbonyl)piperazin-1-yl)pyrrolidin-2-one] | 101 |
| O=C(O)c1ccc(-c2cccc(N3CC(N4CCN(C(=O)c5nccs5)CC4)CC3=O)c2)cc1 (centres unmarked) [Example 286, 3′-(2-oxo-4-(4-(1,3-thiazol-2-ylcarbonyl)piperazin-1-yl)pyrrolidin-1-yl)biphenyl-4-carboxylic acid] | 91 |
| O=C(c1nccs1)N1CCN(C2CC(=O)N(c3cccc(-c4cccc(C(F)(F)F)c4)c3)C2)CC1 (centres unmarked) [Example 287, 4-(4-(1,3-thiazol-2-ylcarbonyl)piperazin-1-yl)-1-(3′-(trifluoromethyl)biphenyl-3-yl)pyrrolidin-2-one] | 103 |
| O=C(c1nccs1)N1CCN(C2CC(=O)N(c3cccc(-c4ccc(C(F)(F)F)cc4)c3)C2)CC1 (centres unmarked) [Example 288, 4-(4-(1,3-thiazol-2-ylcarbonyl)piperazin-1-yl)-1-(4′-(trifluoromethyl)biphenyl-3-yl)pyrrolidin-2-one] | 97 |
| CCOc1ccccc1-c1cccc(N2CC(N3CCN(C(=O)c4nccs4)CC3)CC2=O)c1 (centres unmarked) [Example 289, 1-(2′-ethoxybiphenyl-3-yl)-4-(4-(1,3-thiazol-2-ylcarbonyl)piperazin-1-yl)pyrrolidin-2-one] | 103 |
| O=C(c1nccs1)N1CCN(C2CC(=O)N(c3cccc(-c4ccc(F)c(F)c4)c3)C2)CC1 (centres unmarked) [Example 290, 1-(3′,4′-difluorophenyl-3-yl)-4-(4-(1,3-thiazol-2-ylcarbonyl)piperazin-1-yl)pyrrolidin-2-one] | 101 |
| O=C(c1nccs1)N1CCN(C2CC(=O)N(c3cccc(-c4ccccc4Oc4ccccc4)c3)C2)CC1 (centres unmarked) [Example 291, 1-(2′-phenoxybiphenyl-3-yl)-4-(4-(1,3-thiazol-2-ylcarbonyl)piperazin-1-yl)pyrrolidin-2-one] | 104 |
| O=C(c1nccs1)N1CCN(C2CC(=O)N(c3cccc(-c4ccc(OC(F)(F)F)cc4)c3)C2)CC1 (centres unmarked) [Example 292, 4-(4-(1,3-thiazol-2-ylcarbonyl)piperazin-1-yl)-1-(4′-(trifluoromethoxy)biphenyl-3-yl)pyrrolidin-2-one] | 93 |
| O=C(c1nccs1)N1CCN(C2CC(=O)N(c3cccc(-c4cccc(Cl)c4Cl)c3)C2)CC1 (centres unmarked) [Example 293, 1-(2′,3′-dichlorophenyl-3-yl)-4-(4-(1,3-thiazol-2-ylcarbonyl)piperazin-1-yl)pyrrolidin-2-one] | 103 |
| O=C(c1nccs1)N1CCN(C2CC(=O)N(c3cccc(-c4csc5ccccc45)c3)C2)CC1 (centres unmarked) [Example 294, 1-(3-(1-benzothiophen-3-yl)phenyl)-4-(4-(1,3-thiazol-2-ylcarbonyl)piperazin-1-yl)pyrrolidin-2-one] | 100 |
| N#Cc1ccc(-c2cccc(N3CC(N4CCN(C(=O)c5nccs5)CC4)CC3=O)c2)cc1 (centres unmarked) [Example 295, 3′-(2-oxo-4-(4-(1,3-thiazol-2-ylcarbonyl)piperazin-1-yl)pyrrolidin-1-yl)biphenyl-4-carbonitrile] | 98 |

Second part, the molecule after the results:

| inhibition at 10 µM [%] | SMILES |
| --- | --- |
| 102 | O=C(c1nccs1)N1CCN(C2CC(=O)N(c3cccc(-c4ccc(F)cc4F)c3)C2)CC1 (centres unmarked) [Example 296, 1-(2′,4′-difluorobiphenyl-3-yl)-4-(4-(1,3-thiazol-2-ylcarbonyl)piperazin-1-yl)pyrrolidin-2-one] |
| 103 | O=C(c1nccs1)N1CCN(C2CC(=O)N(c3cccc(-c4cccc(OC(F)(F)F)c4)c3)C2)CC1 (centres unmarked) [Example 297, 4-(4-(1,3-thiazol-2-ylcarbonyl)piperazin-1-yl)-1-(3′-(trifluoromethoxy)biphenyl-3-yl)pyrrolidin-2-one] |
| 101 | O=C(c1nccs1)N1CCN(C2CC(=O)N(c3cccc(-c4ccccc4OC(F)(F)F)c3)C2)CC1 (centres unmarked) [Example 298, 4-(4-(1,3-thiazol-2-ylcarbonyl)piperazin-1-yl)-1-(2′-(trifluoromethoxy)biphenyl-3-yl)pyrrolidin-2-one] |
| 102 | O=C(c1nccs1)N1CCN(C2CC(=O)N(c3cccc(-c4cccc(F)c4F)c3)C2)CC1 (centres unmarked) [Example 299, 1-(2′,3′-difluorobiphenyl-3-yl)-4-(4-(1,3-thiazol-2-ylcarbonyl)piperazin-1-yl)pyrrolidin-2-one] |
| 101 | O=C(c1nccs1)N1CCN(C2CC(=O)N(c3cccc(-c4cc(Cl)ccc4Cl)c3)C2)CC1 (centres unmarked) [Example 300, 1-(2′,5′-dichlorobiphenyl-3-yl)-4-(4-(1,3-thiazol-2-ylcarbonyl)piperazin-1-yl)pyrrolidin-2-one] |
| 104 | Cc1cc(F)ccc1-c1cccc(N2CC(N3CCN(C(=O)c4nccs4)CC3)CC2=O)c1 (centres unmarked) [Example 301, 1-(4′-fluoro-2′-methylbiphenyl-3-yl)-4-(4-(1,3-thiazol-2-ylcarbonyl)piperazin-1-yl)pyrrolidin-2-one] |
| 98 | CS(=O)(=O)Nc1ccccc1-c1cccc(N2CC(N3CCN(C(=O)c4nccs4)CC3)CC2=O)c1 (centres unmarked) [Example 302, N-(3′-(2-oxo-4-(4-(1,3-thiazol-2-ylcarbonyl)piperazin-1-yl)pyrrolidin-1-yl)biphenyl-2-yl)methanesulfonamide] |
| 88 | CC(=O)Nc1ccccc1-c1cccc(N2CC(N3CCN(C(=O)c4nccs4)CC3)CC2=O)c1 (centres unmarked) [Example 303, N-(3′-(2-oxo-4-(4-(1,3-thiazol-2-ylcarbonyl)piperazin-1-yl)pyrrolidin-1-yl)biphenyl-2-yl)acetamide] |
| 100 | O=C(c1nccs1)N1CCN(C2CC(=O)N(c3cccc(-c4ccc(Cl)cc4F)c3)C2)CC1 (centres unmarked) [Example 304, 1-(4′-chloro-2′-fluorobiphenyl-3-yl)-4-(4-(1,3-thiazol-2-ylcarbonyl)piperazin-1-yl)pyrrolidin-2-one] |
| 96 | O=C(c1nccs1)N1CCN(C2CC(=O)N(c3cccc(-c4ccc(C(F)(F)F)cc4Cl)c3)C2)CC1 (centres unmarked) [Example 305, 1-(2′-chloro-4′-(trifluoromethyl)biphenyl-3-yl)-4-(4-(1,3-thiazol-2-ylcarbonyl)piperazin-1-yl)pyrrolidin-2-one] |
| 102 | O=C(c1nccs1)N1CCN(C2CC(=O)N(c3cccc(-c4ccccc4N4CCOCC4)c3)C2)CC1 (centres unmarked) [Example 306, 1-(2′-(morpholin-4-yl)biphenyl-3-yl)-4-(4-(1,3-thiazol-2-ylcarbonyl)piperazin-1-yl)pyrrolidin-2-one] |
| 103 | O=C(c1nccs1)N1CCN(C2CC(=O)N(c3cccc(-c4cccc5[nH]ccc45)c3)C2)CC1 (centres unmarked) [Example 307, 1-(3-(1H-indol-4-yl)phenyl)-4-(4-(1,3-thiazol-2-ylcarbonyl)piperazin-1-yl)pyrrolidin-2-one] |
| 98 | O=C(O)c1cccc(-c2cccc(N3CC(N4CCN(C(=O)c5nccs5)CC4)CC3=O)c2)c1 (centres unmarked) [Example 308, 3′-(2-oxo-4-(4-(1,3-thiazol-2-ylcarbonyl)piperazin-1-yl)pyrrolidin-1-yl)biphenyl-3-carboxylic acid] |
